Key:
OAT3h = target: T1, OAT3h (Homo sapiens, UniProt Q8TCC7); assay: 1 min uptake into 293 cells expressing OAT3h; format: cell-based; details: for clearance: 1 min uptake, 0.1 μmol/l radiotracer
T1 construct: expressed in transfected cells; host or cells: 293 cells (HEK-293)
T1 sequence (Q8TCC7 1-542): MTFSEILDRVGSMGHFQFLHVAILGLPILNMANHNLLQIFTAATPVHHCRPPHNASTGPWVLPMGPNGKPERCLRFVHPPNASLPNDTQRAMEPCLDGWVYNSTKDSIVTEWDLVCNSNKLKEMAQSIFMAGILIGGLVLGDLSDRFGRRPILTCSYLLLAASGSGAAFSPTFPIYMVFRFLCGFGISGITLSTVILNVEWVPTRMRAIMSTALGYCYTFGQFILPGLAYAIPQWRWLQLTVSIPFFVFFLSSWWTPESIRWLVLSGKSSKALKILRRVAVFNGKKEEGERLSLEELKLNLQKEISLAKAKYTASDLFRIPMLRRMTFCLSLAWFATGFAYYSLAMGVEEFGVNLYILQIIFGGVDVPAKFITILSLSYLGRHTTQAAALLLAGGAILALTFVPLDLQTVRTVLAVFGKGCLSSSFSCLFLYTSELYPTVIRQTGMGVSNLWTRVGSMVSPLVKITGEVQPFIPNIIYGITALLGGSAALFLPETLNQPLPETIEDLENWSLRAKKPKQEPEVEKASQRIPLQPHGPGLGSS
Experimental: Uptake was measured at 37° C.

OAT2h mutant E441Q = target: T2, OAT2h mutant E441Q (Homo sapiens, UniProt Q9Y694, E443Q); assay: uptake by OAT2h mutant E441Q (eGFP chimera) in 293 cells; format: cell-based; details: 1 min, 37° C., 0.1 μmol/l radiolabeled solute
T2 construct: expressed in transfected cells; host or cells: 293 cells (HEK-293), doxycycline-inducible
T2 sequence (Q9Y694 1-546 isoform Q9Y694-2 E441Q): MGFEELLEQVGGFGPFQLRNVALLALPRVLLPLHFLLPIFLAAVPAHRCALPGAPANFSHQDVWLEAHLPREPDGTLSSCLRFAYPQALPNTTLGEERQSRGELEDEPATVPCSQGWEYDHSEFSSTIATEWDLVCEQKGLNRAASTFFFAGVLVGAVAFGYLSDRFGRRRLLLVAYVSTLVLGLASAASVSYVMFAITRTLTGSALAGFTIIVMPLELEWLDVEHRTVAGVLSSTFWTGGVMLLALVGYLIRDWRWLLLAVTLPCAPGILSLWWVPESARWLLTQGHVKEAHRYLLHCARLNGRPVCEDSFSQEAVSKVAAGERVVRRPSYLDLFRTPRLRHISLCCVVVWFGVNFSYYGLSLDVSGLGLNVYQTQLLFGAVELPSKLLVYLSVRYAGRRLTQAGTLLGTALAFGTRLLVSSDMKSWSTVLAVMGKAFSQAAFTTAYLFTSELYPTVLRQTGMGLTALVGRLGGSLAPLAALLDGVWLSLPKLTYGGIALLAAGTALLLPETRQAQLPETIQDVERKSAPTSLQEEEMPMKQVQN
Experimental: 293 cells transfected for expression of eGFP chimera of OAT2h wild-type or OAT2hE441Q in dishes were incubated (1 min, 37° C.) with 0.1 μmol/l radiolabeled solute in uptake buffer, washed, and lysed. Cell lysates were analyzed by liquid scintillation counting.
In transmembrane segment 10, the OAT2 orthologues from human, horse, pig, cattle, rabbit, rat, mouse, opossum, and chicken uniformly contain a glutamate (E441 in OAT2h) that is absent in the related carriers OAT1, OAT3, and SLC22A13. Since in other SLC22 family members transmembrane segment 10 is involved in substrate discrimination (Bacher et al. Biochim Biophys Acta 2009; 1788:2594-2602.), the negative charge of the glutamate side chain could specifically attract the ammonium residue of the glutamate substrate. To test this hypothesis, a mutant of OAT2h was created with glutamine at position 441 (E441 Q); eGFP was attached to the C-terminus to verify unaltered membrane trafficking (FIG. 23). […] It follows that E441 is essential for transport of glutamate. […]

| Structure (SMILES) | transport of glutamate (in words) (OAT3h) | clearance (OAT3h) [μl min-1 mg protein-1] | uptake with mutant E441Q versus wild-type (in words) (OAT2h mutant E441Q) |
| --- | --- | --- | --- |
| N[C@@H](CCC(=O)O)C(=O)O [glutamate] | do not transport | 0.2±0.6 | completely abolished |
| O=C(O)c1cc(=O)[nH]c(=O)[nH]1 [orotic acid] | – | 0.7±0.1 | much reduced, but still evident |

Source: patent US20140090094A1, “MODULATORS OF SLC22A7” (BAYER INTELLECTUAL PROPERTY GmbH, priority 2011, published 2014)
